Laboratory results as given in patent US20250145637A1, “SULFONAMIDE DERIVATIVE, PREPARATION METHOD THEREFOR AND MEDICAL USE THEREOF” (Jiangsu Hengrui Pharmaceuticals Co. Ltd., priority 2021, published 2025).
pIC50: −log10 of the molar value.

What was measured:
human KAT6A = human KAT6A (Homo sapiens (Human), UniProt Q92794); assay: KAT6 enzyme activity assay (AlphaScreen method), KAT6A; assay type: biochemical; conditions: inhibition of the enzyme human KAT6A
Source text: Test Example 1: KAT6 Enzyme Activity Assay (AlphaScreen Method)
I. Reagents and instrument • 1. KAT6A (customized by Chempartner) • 2. Ovalbumin (Sigma-Aldrich, A5378-5G) • 3. 2 M Tris-HCl solution, pH 7.8, sterile (Sangon, B548140-0500) • 4. 5 M NaCl solution (Sangon, B548121-0100) • 5. EDTA (0.5 M), pH 8.0, RNase-free (Thermofisher, AM9260G) • 6. Tween-20 (Sangon, A100777-0500) • 7. DTT, 1 M (Invitrogen, P2325) • 8. Acetyl coenzyme A (Ac-CoA, CAYMAN, Cat. No. 16160) • 9. Recombinant histone H3.1 biotinylated (human) (Active Motif 31696) • 10. 384-well plate, light gray (Perkin Elmer, Cat. No. 6005350) • 11. Anacardic acid (MCE, Cat. No. HY—N2020) • 12. AlphaScreen streptavidin donor beads, 5 mg (PerkinElmer, 6760002) • 13. AlphaScreen protein A acceptor beads, 5 mg (PerkinElmer, 6760137M) • 14. Acetylated-lysine antibody #9441 (CST 9441S) • 15. PHERA star microplate reader (BMG labtech) • II. Experimental method
a. 1× assay buffer: 100 mM Tris-HCl, pH 7.8; 15 mM NaCl; 1 mM EDTA; 0.01% tween-20; 1 mM DTT; 0.01% m/v ovalbumin.
b. KAT enzyme solution: 1.25 nM (final concentration), prepared in 1× assay buffer.
c. Mixed substrate of Ac-CoA and H3: a mixed substrate of 1000 nM (final concentration) Ac-CoA and 55 nM (final concentration) H3, prepared in 1× assay buffer.
d. Compounds: initial concentration of 100 μM, 3-fold dilution, 10 gradient concentrations. All compound concentrations were diluted 83-fold with 1× assay buffer for later use.
e. Assay reagent: 8 ng/μL (final concentration) AlphaScreen protein A acceptor beads, 8 ng/μL AlphaScreen streptavidin donor beads, 1:1500 diluted acetylated-lysine antibody, and 100 μM anacardic acid; prepared in 1× assay buffer.
(§1) 2. Experimental Procedure
a. The prepared enzyme solution was added to a 384-well plate at 3 μL/well, and 3 μL of 1× assay buffer was added to each well in columns 23 and 24 (Min).
b. 3 μL of compound solution was added to each well, and 3 μL of buffer was added to each Min well; 3 μL of DMSO solution was added to each well in columns 1 and 2 (Max) as controls. The plate was centrifuged, shaken for 2 min, and incubated at room temperature for 15 min.
c. The mixed substrate of Ac-CoA and H3 was added at 6 μL/well, and the plate was centrifuged, shaken for 2 min, and incubated at room temperature for 20 min.
d. The assay reagent was added at 6 μL/well, and the plate was centrifuged, shaken for 2 min, and incubated in the dark at room temperature for 120 min.
(§2) e. Plate reading was performed on the microplate reader, and AlphaScreen counts were recorded.
f. Plotting was performed using the Graphpad software, and the IC50 values of the compounds were calculated.

human KAT6B = human KAT6B (Homo sapiens (Human), UniProt Q8WYB5); assay: KAT6B enzyme activity assay (AlphaScreen method); assay type: biochemical; conditions: inhibition of the enzyme human KAT6B
Source text: Test Example 2: KAT6B Enzyme Activity Assay (AlphaScreen Method)
I. Reagents and Instrument
• 1. KAT6B (718-1008) (ActiveMotif, 81224) • 2. Bovine serum albumin (Sangon, A500023-0100) • 3. 2 M Tris-HCl solution, pH 7.8, sterile (Sangon, B548140-0500) • 4. EDTA (0.5 M), pH 8. 0, RNase-free (Thermofisher, AiM9260G) • 5. Tween-20 (Sangon, A100777-0500) • 6. DTT, 1 M (Invitrogen, P2325) • 7. Acetyl coenzyme A (Ac-CoA, CAYMAN, Cat. No. 16160) • 8. Recombinant histone H3.1 biotinylated (human) (Active Motif 31696) • 9. 384-well plate, light gray (Perkin Elmer, Cat. No. 6007290) • 10. Anacardic acid (MCE, Cat. No. HY—N2020) • 11. AlphaScreen streptavidin donor beads, 5 mg (PerkinElmer, 6760002) • 12. AlphaScreen protein A acceptor beads, 5 mg (PerkinElmer, 6760137M) • 13. Acetylated-lysine antibody #9441 (CST 9441S) • 14. DMSO (Tansoole, G7592B) • 15. PHERA star microplate reader (BMG labtech)
a. 1× buffer 2: 50 mM Tris-HCl, pH 7.8; 0.1 mM EDTA; 0.01% v/v tween-20; 1 mM DTT; 0.01% m/v bovine serum albumin.
b. KAT6B enzyme solution: 3 nM (final concentration), prepared in buffer 2.
c. Mixed substrate of Ac-CoA and H3: a mixed substrate of 30 nM (final concentration) Ac-CoA and 30 nM (final concentration) H3, prepared in buffer 2.
d. Compounds: initial concentration of 10 mM, 4-fold dilution, 10 gradient concentrations. All compound concentrations were diluted 2500-fold with buffer 2 for later use.
e. Assay reagent: 8 ng/μL (final concentration) AlphaScreen protein A acceptor beads, 8 ng/μL AlphaScreen streptavidin donor beads, 1:1000 diluted acetylated-lysine antibody, and 100 μM anacardic acid; prepared in buffer 2.
as §1
a. The prepared compound solutions were added to a 384-well plate at 2 μL/well, and 2 μL of buffer 2 (containing 0.04% DMSO) was added to each Min well and each Max well as controls. The plate was centrifuged.
b. The prepared enzyme solution was added at 2 μL/well, and 2 μL of buffer 2 was added to each Min well. The plate was centrifuged, shaken for 2 min, and incubated at room temperature for 10 min.
c. The mixed substrate of Ac-CoA and H3 was added at 4 μL/well, and the plate was centrifuged, shaken for 2 min, and incubated at room temperature for 120 min.
d. The assay reagent was added at 4 μL/well, and the plate was centrifuged, shaken for 2 min, and incubated in the dark at room temperature for 120 min.
as §2
f. Dose-response curves were plotted using log(inhibitor) vs. response of the graphpad prism software, with the abscissa representing the logarithm of the compound concentration and the ordinate representing the calculated enzyme activity inhibition rate, and IC50 values were calculated.

Sequence of human KAT6A (Q92794 whole entry): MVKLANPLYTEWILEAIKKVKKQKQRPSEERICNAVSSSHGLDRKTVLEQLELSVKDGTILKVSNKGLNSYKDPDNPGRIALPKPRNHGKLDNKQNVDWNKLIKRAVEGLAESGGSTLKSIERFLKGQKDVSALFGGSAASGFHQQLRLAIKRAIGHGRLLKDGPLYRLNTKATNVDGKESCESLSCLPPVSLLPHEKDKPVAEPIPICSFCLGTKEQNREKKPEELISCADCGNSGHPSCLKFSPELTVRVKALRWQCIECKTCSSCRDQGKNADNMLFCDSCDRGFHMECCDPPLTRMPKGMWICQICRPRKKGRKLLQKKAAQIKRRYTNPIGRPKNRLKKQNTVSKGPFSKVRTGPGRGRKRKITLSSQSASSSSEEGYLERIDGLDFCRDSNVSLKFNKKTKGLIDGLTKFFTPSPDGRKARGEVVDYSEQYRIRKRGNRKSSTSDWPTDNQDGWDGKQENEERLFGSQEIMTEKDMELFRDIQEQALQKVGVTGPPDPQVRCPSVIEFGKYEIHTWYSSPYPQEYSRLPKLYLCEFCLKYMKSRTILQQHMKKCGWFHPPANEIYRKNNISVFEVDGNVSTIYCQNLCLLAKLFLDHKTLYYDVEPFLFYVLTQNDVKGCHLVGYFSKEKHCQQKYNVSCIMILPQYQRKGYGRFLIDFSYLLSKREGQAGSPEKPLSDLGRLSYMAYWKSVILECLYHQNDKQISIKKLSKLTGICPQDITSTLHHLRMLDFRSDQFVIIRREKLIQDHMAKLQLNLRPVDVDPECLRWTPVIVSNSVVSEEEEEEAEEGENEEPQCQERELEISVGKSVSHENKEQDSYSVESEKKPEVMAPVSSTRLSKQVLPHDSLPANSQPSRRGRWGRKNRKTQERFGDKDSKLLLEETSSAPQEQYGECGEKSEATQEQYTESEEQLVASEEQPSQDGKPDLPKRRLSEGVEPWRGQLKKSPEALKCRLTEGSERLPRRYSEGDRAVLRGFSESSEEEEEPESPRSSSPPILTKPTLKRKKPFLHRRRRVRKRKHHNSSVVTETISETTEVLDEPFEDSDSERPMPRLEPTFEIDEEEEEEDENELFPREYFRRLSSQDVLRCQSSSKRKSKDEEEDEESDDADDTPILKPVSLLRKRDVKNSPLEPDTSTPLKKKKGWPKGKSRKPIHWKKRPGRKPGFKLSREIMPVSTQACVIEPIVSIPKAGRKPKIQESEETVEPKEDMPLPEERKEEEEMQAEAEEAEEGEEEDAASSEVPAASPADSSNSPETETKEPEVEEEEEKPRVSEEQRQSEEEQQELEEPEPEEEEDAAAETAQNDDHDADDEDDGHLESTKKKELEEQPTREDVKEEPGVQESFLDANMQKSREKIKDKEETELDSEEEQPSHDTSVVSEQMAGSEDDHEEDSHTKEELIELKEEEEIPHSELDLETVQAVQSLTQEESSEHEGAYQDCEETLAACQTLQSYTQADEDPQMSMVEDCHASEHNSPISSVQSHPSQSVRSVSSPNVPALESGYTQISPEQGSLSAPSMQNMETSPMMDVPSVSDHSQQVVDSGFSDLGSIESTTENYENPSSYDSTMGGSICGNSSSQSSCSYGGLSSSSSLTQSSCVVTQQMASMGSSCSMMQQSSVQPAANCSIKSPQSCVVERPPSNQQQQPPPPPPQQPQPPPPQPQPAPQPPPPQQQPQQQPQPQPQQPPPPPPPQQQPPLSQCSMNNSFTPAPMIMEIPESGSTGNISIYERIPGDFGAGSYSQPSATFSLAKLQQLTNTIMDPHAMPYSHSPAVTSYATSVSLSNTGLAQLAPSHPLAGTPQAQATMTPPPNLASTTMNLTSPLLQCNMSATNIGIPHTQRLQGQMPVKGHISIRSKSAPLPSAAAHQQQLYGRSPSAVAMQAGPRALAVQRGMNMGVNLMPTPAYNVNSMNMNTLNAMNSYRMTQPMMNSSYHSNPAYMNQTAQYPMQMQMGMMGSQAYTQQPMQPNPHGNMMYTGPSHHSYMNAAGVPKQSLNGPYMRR
Sequence of human KAT6B (Q8WYB5 718-1008): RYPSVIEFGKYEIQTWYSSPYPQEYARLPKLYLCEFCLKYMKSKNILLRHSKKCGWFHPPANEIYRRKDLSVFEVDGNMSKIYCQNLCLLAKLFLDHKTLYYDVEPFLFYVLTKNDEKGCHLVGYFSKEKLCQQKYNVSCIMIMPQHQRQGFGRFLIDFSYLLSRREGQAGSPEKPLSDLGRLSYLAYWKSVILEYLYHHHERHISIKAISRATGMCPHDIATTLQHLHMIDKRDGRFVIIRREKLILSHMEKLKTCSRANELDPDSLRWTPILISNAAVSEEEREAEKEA

Row | Structure (SMILES) | pIC50 (human KAT6A) | pIC50 (human KAT6B)
1 | COc1cccc(OC(F)(F)F)c1S(=O)(=O)Nc1noc2cc(Cn3cccn3)c3c(c12)OCCC3 [Compound 10, N-(5-((1H-pyrazol-1-yl)methyl)-3,4-dihydro-2H-chromeno[8,7-d]isoxazol-9-yl)-2-methoxy-6-(trifluoromethoxy)benzenesulfonamide] | 9.05 | –
2 | COc1cccc(OC(F)(F)F)c1S(=O)(=O)Nc1noc2cc(Cn3cccn3)c3c(c12)OCC3 [Compound 23, N-(4-((1H-pyrazol-1-yl)methyl)-2,3-dihydrobenzofuro[7,6-d]isoxazol-8-yl)-2-methoxy-6-(trifluoromethoxy)benzenesulfonamide] | 8.32 | –
3 | COc1cccc(OC)c1S(=O)(=O)Nc1noc2cc(Cn3cccn3)c3c(c12)OCC3 [Compound 1, N-(4-((1H-pyrazol-1-yl)methyl)-2,3-dihydrobenzofuro[7,6-d]isoxazol-8-yl)-2,6-dimethoxybenzenesulfonamide] | 9.22 | 8.96
4 | COc1ccc(F)cc1S(=O)(=O)Nc1noc2cc(Cn3cccn3)c3c(c12)OCCC3 [Compound 9, N-(5-((1H-pyrazol-1-yl)methyl)-3,4-dihydro-2H-chromeno[8,7-d]isoxazol-9-yl)-5-fluoro-2-methoxybenzenesulfonamide] | 9.15 | –
5 | COc1ccccc1S(=O)(=O)Nc1noc2cc(Cn3cccn3)c3c(c12)OCC3 [Compound 20, N-(4-((1H-pyrazol-1-yl)methyl)-2,3-dihydrobenzofuro[7,6-d]isoxazol-8-yl)-2-methoxybenzenesulfonamide] | 8.54 | –
6 | CCOc1cc(C)ccc1S(=O)(=O)Nc1noc2cc(Cn3cccn3)c3c(c12)OCCC3 [Compound 7, N-(5-((1H-pyrazol-1-yl)methyl)-3,4-dihydro-2H-chromeno[8,7-d]isoxazol-9-yl)-2-ethoxy-4-methylbenzenesulfonamide] | 9.30 | –
7 | COc1ccccc1S(=O)(=O)Nc1noc2cc(Cn3cccn3)c3c(c12)OCCC3 [Compound 3, N-(5-((1H-pyrazol-1-yl)methyl)-3,4-dihydro-2H-chromeno[8,7-d]isoxazol-9-yl)-2-methoxybenzenesulfonamide] | 9.30 | 8.85
8 | Cc1ccc(S(=O)(=O)Nc2noc3cc(Cn4cccn4)c4c(c23)OCCC4)c(OCC(F)(F)F)c1 [Compound 8, N-(5-((1H-pyrazol-1-yl)methyl)-3,4-dihydro-2H-chromeno[8,7-d]isoxazol-9-yl)-4-methyl-2-(2,2,2-trifluoroethoxy)benzenesulfonamide] | 9.15 | –
9 | COc1cccc(OC)c1S(=O)(=O)Nc1noc2cc(Cn3cccn3)c3c(c12)OC(F)(F)O3 [Compound 5, N-(4-((1H-pyrazol-1-yl)methyl)-2,2-difluoro-[1,3]dioxolo[4′,5′:5,6]benzo[1,2-d]isoxazol-8-yl)-2,6-dimethoxybenzenesulfonamide] | 9.00 | 8.82
10 | COc1cccc(OC)c1S(=O)(=O)Nc1noc2cc(Cn3cccn3)c3c(c12)OCCC3 [Compound 2, N-(5-((1H-pyrazol-1-yl)methyl)-3,4-dihydro-2H-chromeno[8,7-d]isoxazol-9-yl)-2,6-dimethoxybenzenesulfonamide] | – | 9.15
